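Assay format: 96-well plates, 48-hour exposure. TGI marks complete inhibition of growth.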
What was measured:
Assay in all cases: inhibition of tumour cell growth, NCI panel, 48 h
DU-145 prostate = test system: DU-145 prostate
HCT-116 colon = test system: HCT-116 colon
HS 578T breast = test system: HS 578T breast
HT29 colon = test system: HT29 colon
K-562 leukemia = test system: K-562 leukemia
MDA-MB-435 = test system: MDA-MB-435
MOLT-4 leukemia = test system: MOLT-4 leukemia
NCI-H23 lung = test system: NCI-H23 lung
NCI/ADR-RES ovarian = test system: NCI/ADR-RES ovarian
OVCAR-3 ovarian = test system: OVCAR-3 ovarian
OVCAR-8 ovarian = test system: OVCAR-8 ovarian
RPMI-8226 leukemia = test system: RPMI-8226 leukemia
SF-268 CNS = test system: SF-268 CNS
SF-295 CNS = test system: SF-295 CNS
SF-539 CNS = test system: SF-539 CNS
SN12C renal = test system: SN12C renal
SNB-19 CNS = test system: SNB-19 CNS
IGROV1 ovarian = test system: IGROV1 ovarian
NCI-H226 lung = test system: NCI-H226 lung
NCI-H522 lung = test system: NCI-H522 lung

Compound	TGI (DU-145 prostate)	TGI (HCT-116 colon)	TGI (HS 578T breast)	TGI (HT29 colon)	TGI (K-562 leukemia)	TGI (MDA-MB-435)	TGI (MOLT-4 leukemia)	TGI (NCI-H23 lung)	TGI (NCI/ADR-RES ovarian)	TGI (OVCAR-3 ovarian)	TGI (OVCAR-8 ovarian)	TGI (RPMI-8226 leukemia)	TGI (SF-268 CNS)	TGI (SF-295 CNS)	TGI (SF-539 CNS)	TGI (SN12C renal)	TGI (SNB-19 CNS)	TGI (IGROV1 ovarian)	TGI (NCI-H226 lung)	TGI (NCI-H522 lung)
c1ccc(C2SCC3=Nc4ccccc4CN32)cc1 (stereo unspecified)	> 100 µM	51.9 µM	> 100 µM	50.7 µM	> 100 µM	> 100 µM	> 100 µM	62.3 µM	48 µM	22.5 µM	57.3 µM	> 100 µM	> 100 µM	70.8 µM	99.2 µM	> 100 µM	57.8 µM			
CCOP(=O)(/C=C\n1cnc2c(=O)n(C(C)=O)c(N)nc21)OCC	> 100 µM	> 100 µM		> 100 µM	> 100 µM	> 100 µM	> 100 µM	> 100 µM	> 100 µM	> 100 µM	> 100 µM	> 100 µM		> 100 µM	> 100 µM	> 100 µM	> 100 µM	> 100 µM	> 100 µM	
Cc1nc2c(o1)C(=O)c1ccccc1/C2=N/c1ccccn1		41.8 µM	41.1 µM	41.3 µM	> 100 µM	31.9 µM	43.2 µM	23.6 µM	56.9 µM	49.3 µM	31.1 µM	> 100 µM	68.9 µM	> 100 µM	33.2 µM	64.1 µM	28.3 µM	51.4 µM		35.9 µM
CC(=O)c1ccc(Oc2ccc(/C(C)=N\N=C(N)N)cc2)cc1		13 µM		3.52 µM			12.2 µM	12.8 µM		4.89 µM	12.7 µM	8.7 µM	16.1 µM	6.18 µM	3.48 µM	13.4 µM	22.5 µM	18.2 µM		4.04 µM
Cc1ccc(C(=O)C(C)N)cc1 (stereo unspecified)		> 100 µM		> 100 µM	> 100 µM		> 100 µM	> 100 µM		> 100 µM	> 100 µM	> 100 µM	> 100 µM	> 100 µM	> 100 µM	> 100 µM	> 100 µM	> 100 µM	> 100 µM	> 100 µM
COc1cc(/C=C/C(C)=O)ccc1OP(=O)(O)O	> 100 µM	> 100 µM	> 100 µM	> 100 µM		> 100 µM	> 100 µM	> 100 µM		> 100 µM	> 100 µM	> 100 µM	> 100 µM	> 100 µM	> 100 µM	> 100 µM	> 100 µM	> 100 µM	> 100 µM	> 100 µM
Cc1cccc(Nc2cn(COCc3ccccc3)c(=O)[nH]c2=O)c1	> 100 µM	> 100 µM	> 100 µM	> 100 µM	> 100 µM	> 100 µM	> 100 µM	> 100 µM	90 µM	> 100 µM		> 100 µM	> 100 µM	> 100 µM		> 100 µM	> 100 µM	> 100 µM		97.2 µM
O=C1c2ccccc2CC12Cc1cc3c(cc1C2=O)CCC3 (stereo unspecified)	> 100 µM	> 100 µM	> 100 µM	> 100 µM	> 100 µM	> 100 µM	> 100 µM	> 100 µM	> 100 µM	> 100 µM	> 100 µM	> 100 µM	> 100 µM	> 100 µM	> 100 µM		> 100 µM	> 100 µM		> 100 µM
COC(=O)C1=Nc2c(C)nn(-c3ccccc3)c2N=C(c2ccc(C)cc2)C1	> 10 µM	> 10 µM	> 10 µM	> 10 µM	> 10 µM	> 10 µM	> 10 µM	> 10 µM	> 10 µM	> 10 µM	> 10 µM	> 10 µM	> 10 µM	> 10 µM	> 10 µM	> 10 µM	> 10 µM	> 10 µM		> 10 µM
O=C(/C=C/c1ccc(O)c(O)c1)OCCc1cccc2ccccc12	18.6 µM	14.6 µM		27.5 µM	9.08 µM	4.65 µM	12.3 µM	14 µM	29.4 µM	14.1 µM	19.9 µM	20.5 µM	27 µM	17.9 µM	18.2 µM	7.96 µM	28.4 µM	14.5 µM	58.6 µM	4.17 µM
Cc1csc2nc(-c3ccc([N+](=O)[O-])cc3)c(/C=N/N=C(N)N)n12	4.3 µM	3.76 µM	3.15 µM	3.21 µM		3.16 µM		3.2 µM	> 50.8 µM	5.7 µM	2.68 µM	4.12 µM	3.29 µM	3.24 µM	3.08 µM	3.28 µM	4.18 µM	2.75 µM		3.08 µM
CCCNC(=S)N/N=C/c1cccc(C)n1		29 µM	> 100 µM	> 100 µM	77.5 µM	> 100 µM	72.3 µM	> 100 µM	> 100 µM		> 100 µM	> 100 µM		> 100 µM	62.9 µM	> 100 µM		> 100 µM	72.2 µM	37 µM
C=C1c2c(cc3c(c2O)c(=O)c2ccccc2n3C)OC1(C)C				> 100 µM			> 100 µM	27.3 µM		> 100 µM	> 100 µM	> 100 µM	> 100 µM	> 100 µM	> 100 µM	> 100 µM	> 100 µM	> 100 µM	> 100 µM	9.49 µM
CC1CCCC2=C1C(c1ccc(Cl)cc1)n1c(s/c(=C\c3ccc(Cl)cc3)c1=O)=N2 (stereo unspecified)	> 100 µM	> 100 µM	> 100 µM	> 100 µM	> 100 µM	> 100 µM					> 100 µM	> 100 µM	> 100 µM			> 100 µM	> 100 µM	> 100 µM		
C=C(C=O)c1c2c(nc3ccccc13)C(=O)c1ccccc1C2=O	0.982 µM	3.48 µM	0.961 µM		> 22.5 µM	> 100 µM	0.997 µM	2.85 µM		2.35 µM	2.3 µM		3.02 µM	2.76 µM	0.605 µM	41.3 µM	2.8 µM	2.19 µM	1.97 µM	2.09 µM
CCC1CC2CN3CCc4c([nH]c5c(-c6c(OC)ccc7c8c([nH]c67)[C@]6(C(=O)OC)CC7CC(CC)C6N(CC8)C7)c(O)ccc45)[C@](C(=O)OC)(C2)C13 (stereo partly specified)	28.4 µM	25.7 µM		18.6 µM	27 µM	23.6 µM	16.7 µM	34.4 µM	53.9 µM	30.9 µM	49.7 µM		32.9 µM	36.1 µM	39.7 µM		35.8 µM	31.3 µM	22 µM	31.6 µM
Cc1c(-c2cc3n(n2)C(c2cccs2)C(C#N)=C(c2ccccc2)N3)c(=O)n(-c2ccccc2)n1C (stereo unspecified)		> 100 µM		> 100 µM	> 100 µM		> 100 µM	> 100 µM	> 100 µM	> 100 µM	> 100 µM		> 100 µM	> 100 µM	> 100 µM	> 100 µM	> 100 µM	> 100 µM	> 100 µM	> 100 µM
CC(=O)[O-].CC(=O)[O-].O=C(N/N=C/c1cc(Cl)cc(Cl)c1[OH2+])c1ccncc1.[Co+2]		> 100 µM		> 100 µM	> 100 µM		> 100 µM	> 100 µM		> 100 µM	> 100 µM	> 100 µM	> 100 µM	> 100 µM	> 100 µM	> 100 µM	> 100 µM	> 100 µM	> 100 µM	> 100 µM
O=C(NO)c1coc2ccccc2c1=O				> 100 µM	> 100 µM		> 100 µM	> 100 µM			> 100 µM	> 100 µM	> 100 µM	> 100 µM	> 100 µM	> 100 µM	> 100 µM	> 100 µM		> 100 µM
O=C1c2cc3ccccc3cc2C2(c3ccc(Cl)cc3)N[C@H]3CCCC[C@@H]3N12 (stereo partly specified)	60.2 µM	18.8 µM	27.9 µM	53.5 µM	> 100 µM	93 µM	> 100 µM	31.3 µM	41.6 µM	49 µM	19.4 µM	> 100 µM	39 µM	32.4 µM	21.8 µM	43.8 µM	27.9 µM	30.6 µM		
O=C(N/N=C1\CCc2ccccc2C1)N/N=C1\CCc2ccccc2C1	> 10 µM	> 10 µM		> 10 µM	> 10 µM	> 10 µM	> 10 µM	> 10 µM	> 10 µM	> 10 µM	> 10 µM	> 10 µM	> 10 µM	> 10 µM		> 10 µM	> 10 µM		> 10 µM	> 10 µM
CCc1n[nH]c(=O)n1N1C(=O)C2CC=CCC2C1=O (stereo unspecified)		> 100 µM	> 100 µM	> 100 µM	> 100 µM	> 100 µM	> 100 µM	> 100 µM	> 100 µM	> 100 µM	> 100 µM	> 100 µM	> 100 µM	> 100 µM	> 100 µM	> 100 µM	> 100 µM	> 100 µM	> 100 µM	> 100 µM
CC(C)(C)[Si](C)(C)OCCCC#CCO				> 100 µM	> 100 µM		> 100 µM	> 100 µM			> 100 µM	> 100 µM	> 100 µM	> 100 µM	> 100 µM	> 100 µM	> 100 µM	> 100 µM		> 100 µM
NC(=O)CCC(NCc1c2ccccc2[n+]([O-])c2ccccc12)C(=O)O (stereo unspecified)		> 100 µM		> 100 µM	> 100 µM		> 100 µM	> 100 µM		> 100 µM	> 100 µM	> 100 µM	> 100 µM	> 100 µM		> 100 µM	> 100 µM	> 100 µM	> 100 µM	> 100 µM
COC(=O)CC1(CNC(=O)OCc2ccccc2)OCCO1	> 100 µM	> 100 µM			> 100 µM	> 100 µM	> 100 µM	> 100 µM	> 100 µM	> 100 µM	> 100 µM	> 100 µM		> 100 µM	> 100 µM	> 100 µM	> 100 µM	> 100 µM	> 100 µM	> 100 µM
CC(=O)C1=C(N=[N+]=[N-])c2cccc3cccc(c23)C1=O		30.8 µM	80.6 µM	39.3 µM	89.8 µM	48.5 µM	33.2 µM	43.4 µM	70.9 µM	24.6 µM	65.8 µM	42.8 µM	75.2 µM	61.7 µM	42 µM	39.7 µM	91.7 µM	32.6 µM	64.2 µM	29.3 µM
O=C(O)CSc1cc(-c2ccccc2)nc2ccccc12	> 100 µM	22 µM	61.4 µM	> 100 µM	> 100 µM	38 µM	> 100 µM	> 100 µM	> 100 µM	49 µM	> 100 µM		> 100 µM	> 100 µM		> 100 µM	> 100 µM	> 100 µM		70.9 µM
Cc1cc2[nH]c3c(C#N)c(-c4ccccc4)c(N=Nc4cccc(C(F)(F)F)c4)c(=O)n3c2cc1C		> 100 µM				> 100 µM		93.4 µM	> 100 µM	57 µM	> 100 µM	> 100 µM	> 100 µM	> 100 µM	> 100 µM	> 100 µM	> 100 µM	> 100 µM	> 100 µM	69.4 µM
